Patent publication US7381521B2, “Anti-pathogenic composition useful in blood preservation” (Altachem Pharma Ltd., priority 2001, dated 2008)

System: erythrocytes in heparinized bovine blood
Experiment: In-vitro hemolysis of erythrocytes in heparinized whole blood, absorbance at 413 nm
Details: 1 hour at 37° C.
Description: The effect of the compounds on the in-vitro hemolysis of erythrocytes in heparinized whole blood is monitored by a spectrophotometric method.
Various formulations and concentrations of the test compound are added to heparinized bovine blood and mixed gently in a 1.5 ml microcentrifuge tube. The sample is allowed to incubate for 1 hour at 37° C. At the end of incubation, the samples are removed from the incubator and centrifuged at 2000 rpm for 5 minutes. A 200 μl aliquot of the supernatant is removed from each sample into a 96 well microtiter plate and read at 413 nm. The absorbance of the test sample is compared to the control sample containing phosphate buffered saline, pH 7.2.

C[N+](C)(C)CCCCCCCCCC[N+](C)(C)C.[I-].[I-] [Decamethonium Iodide] and C[N+](C)(C)CCCCCC[N+](C)(C)C [Hexamethonium Bromide] are the same in “Concentration at which hemolysis is not observed” value: 0.0125% for the first, 0.0125% for the second.

Tergitol NP-9 was tested, and the “Concentration at which hemolysis is not observed” value was 0.001%.
